Source: patent publication US20200246316A1, “METHODS OF TREATING POST-SURGICAL PAIN WITH A THIAZOLINE ANTI-HYPERALGESIC AGENT” (CERSCI THERAPEUTICS, INC., priority 2019, published 2020)
Where a name gives a salt, the structure may show the parent alone. Read-outs that look alike come from different tables or passages of the source.

How the values were obtained:
[1] = Rat 28-day GLP repeat dose PO study (toxicokinetics); type: in vivo; details: rat, in vivo, po; for Cmax: read-out: Cmax; for half-life: read-out: t1/2 (converted); for Tmax: read-out: tmax
Experimental: The vehicle was 0.5% HPMC. There were 15 rats/sex in the control and high dose groups (5/sex for a 14-day recovery period) while the low and mid doses consisted of 10 rats/sex. Satellite groups of rats/sex/group for toxicokinetics were included.
Rats in Group 1 (Vehicle Control) were bled once at approximately 1 hour post-dose on those days.

[2] = Log D distribution coefficient (PBS buffer/octanol); type: physicochemical
Experimental: Compound 1 has a Log D distribution coefficient at pH 7.2 of −0.07 (3 mL PBS Buffer: 1 mL Octanol) and −0.39 (2 mL PBS Buffer: 2 mL Octanol), where PBS is phosphate buffer solution.

[3] = female, 2000 mg/kg, Day 14, F, 2000 mg/kg PO
[4] = female, 2000 mg/kg, Day 28, F, 2000 mg/kg PO
[5] = male, 500 mg/kg, Day 1, M, 500 mg/kg PO
[6] = male, 500 mg/kg, Day 14, M, 500 mg/kg PO
[7] = male, 500 mg/kg, Day 28, M, 500 mg/kg PO
[8] = male, 1000 mg/kg, Day 1, M, 1000 mg/kg PO
[9] = male, 1000 mg/kg, Day 14, M, 1000 mg/kg PO
[10] = male, 1000 mg/kg, Day 28, M, 1000 mg/kg PO
[11] = male, 2000 mg/kg, Day 1, M, 2000 mg/kg PO
[12] = male, 2000 mg/kg, Day 14, M, 2000 mg/kg PO
[13] = male, 2000 mg/kg, Day 28, M, 2000 mg/kg PO

In the case of `CC1(C)SC(Nc2ccccc2O)=N[C@@H]1C(=O)O` [Compound 1, (R)-2-(2-hydroxyphenylamino)-5,5-dimethyl-4,5-dihydrothiazole-4-carboxylic acid mono-hydrochloride], the AUC(0-inf) [1, 3] is reported as 952 µg·h/mL, the CL/F ([1]; female, 2000 mg/kg, Day 14, F, 2000 mg/kg PO, read-out: CL/F (CLss/F) (converted)) is reported as 35.3 mL/min/kg and the Cmax [1, 3] is reported as 127 µg/mL. For the same molecule, the Vd/F ([1]; female, 2000 mg/kg, Day 14, F, 2000 mg/kg PO, read-out: V/F (Vss/F)) was 10.9 L/kg, the half-life [1, 3] was 3.56 h and the Tmax [1, 3] was 1 h. The AUC [1, 4] was 1300 µg·h/mL, the AUC(0-inf) [1, 4] was 1330 µg·h/mL and the CL/F ([1]; female, 2000 mg/kg, Day 28, F, 2000 mg/kg PO, read-out: CL/F (CLss/F) (converted)) was 25.5 mL/min/kg. It also gave a Cmax [1, 4] of 139 µg/mL, a Vd/F ([1]; female, 2000 mg/kg, Day 28, F, 2000 mg/kg PO, read-out: V/F (Vss/F)) of 8.7 L/kg and a half-life [1, 4] of 3.93 h. It also gave a Tmax [1, 4] of 0.5 h, an AUC [1, 5] of 270 µg·h/mL and an AUC(0-inf) [1, 5] of 275 µg·h/mL. It also gave a CL/F ([1]; male, 500 mg/kg, Day 1, M, 500 mg/kg PO, read-out: CL/F (CLz/F) (converted)) of 30.3 mL/min/kg, a Cmax [1, 5] of 55.1 µg/mL and a Vd/F ([1]; male, 500 mg/kg, Day 1, M, 500 mg/kg PO, read-out: V/F (Vz/F)) of 11 L/kg. The half-life [1, 5] was 4.18 h, the Tmax [1, 5] was 1 h and the AUC [1, 6] was 244 µg·h/mL. It also gave an AUC(0-inf) [1, 6] of 258 µg·h/mL, a CL/F ([1]; male, 500 mg/kg, Day 14, M, 500 mg/kg PO, read-out: CL/F (CLss/F) (converted)) of 34.2 mL/min/kg and a Cmax [1, 6] of 45.8 µg/mL. For the same molecule, the Vd/F ([1]; male, 500 mg/kg, Day 14, M, 500 mg/kg PO, read-out: V/F (Vss/F)) was 18.5 L/kg, the half-life [1, 6] was 6.27 h and the Tmax [1, 6] was 1 h. The AUC [1, 7] was 305 µg·h/mL, the AUC(0-inf) [1, 7] was 333 µg·h/mL and the CL/F ([1]; male, 500 mg/kg, Day 28, M, 500 mg/kg PO, read-out: CL/F (CLss/F) (converted)) was 27.3 mL/min/kg. For the same molecule, the Cmax [1, 7] was 48.6 µg/mL, the Vd/F ([1]; male, 500 mg/kg, Day 28, M, 500 mg/kg PO, read-out: V/F (Vss/F)) was 16.4 L/kg and the half-life [1, 7] was 6.9 h. The Tmax [1, 7] was 1 h, the CL/F ([1]; male, 1000 mg/kg) was 56.8 mL/min/kg and the AUC [1, 8] was 456 µg·h/mL. The AUC(0-inf) [1, 8] was 460 µg·h/mL, the CL/F ([1]; male, 1000 mg/kg, Day 1, M, 1000 mg/kg PO, read-out: CL/F (CLz/F) (converted)) was 36.2 mL/min/kg and the Cmax [1, 8] was 52.7 µg/mL. For the same molecule, the Vd/F ([1]; male, 1000 mg/kg, Day 1, M, 1000 mg/kg PO, read-out: V/F (Vz/F)) was 10.9 L/kg, the half-life [1, 8] was 3.46 h and the Tmax [1, 8] was 1 h. For the same molecule, the AUC [1, 9] was 293 µg·h/mL, the AUC(0-inf) [1, 9] was 296 µg·h/mL and the Cmax [1, 9] was 51.9 µg/mL. The Vd/F ([1]; male, 1000 mg/kg, Day 14, M, 1000 mg/kg PO, read-out: V/F (Vss/F)) was 18.1 L/kg, the half-life [1, 9] was 3.68 h and the Tmax [1, 9] was 1 h. For the same molecule, the AUC [1, 10] was 334 µg·h/mL, the AUC(0-inf) [1, 10] was 337 µg·h/mL and the CL/F ([1]; male, 1000 mg/kg, Day 28, M, 1000 mg/kg PO, read-out: CL/F (CLss/F) (converted)) was 49.8 mL/min/kg. It also gave a Cmax [1, 10] of 47.9 µg/mL, a Vd/F ([1]; male, 1000 mg/kg, Day 28, M, 1000 mg/kg PO, read-out: V/F (Vss/F)) of 14.3 L/kg and a half-life [1, 10] of 3.31 h. The CL/F ([1]; male, 2000 mg/kg) was 47.7 mL/min/kg, the AUC [1, 11] was 768 µg·h/mL and the AUC(0-inf) [1, 11] was 771 µg·h/mL. The CL/F ([1]; male, 2000 mg/kg, Day 1, M, 2000 mg/kg PO, read-out: CL/F (CLz/F) (converted)) was 43.2 mL/min/kg, the Cmax [1, 11] was 83.1 µg/mL and the Vd/F ([1]; male, 2000 mg/kg, Day 1, M, 2000 mg/kg PO, read-out: V/F (Vz/F)) was 10.5 L/kg. For the same molecule, the half-life [1, 11] was 2.81 h, the AUC [1, 12] was 701 µg·h/mL and the AUC(0-inf) [1, 12] was 709 µg·h/mL. It also gave a Cmax [1, 12] of 75.6 µg/mL, a Vd/F ([1]; male, 2000 mg/kg, Day 14, M, 2000 mg/kg PO, read-out: V/F (Vss/F)) of 15.1 L/kg and a half-life [1, 12] of 3.66 h. For the same molecule, the Tmax [1, 12] was 1 h, the AUC [1, 13] was 724 µg·h/mL and the AUC(0-inf) [1, 13] was 731 µg·h/mL. The CL/F ([1]; male, 2000 mg/kg, Day 28, M, 2000 mg/kg PO, read-out: CL/F (CLss/F) (converted)) was 46 mL/min/kg, the Cmax [1, 13] was 83.6 µg/mL and the Vd/F ([1]; male, 2000 mg/kg, Day 28, M, 2000 mg/kg PO, read-out: V/F (Vss/F)) was 14.1 L/kg. For the same molecule, the half-life [1, 13] was 3.53 h, the t1/2 ([1]; 2000 mg/kg) was 8 05 hr and the logD ([2]; pH 7.2, pH 7.2, 2 mL PBS Buffer: 2 mL Octanol) was -0.39. For the same molecule, the logD ([2]; pH 7.2, pH 7.2, 3 mL PBS Buffer: 1 mL Octanol) was -0.07.
